From US10213451B2, “Methods and compounds for modulating the secretion or expression of adhesion proteins or angiopoietins of cells” (PACIFIC ARROW LIMITED, priority 2004, dated 2019)
Converted amounts (≈) assume the structure as drawn. Like-named read-outs stand apart in the source and are kept apart here.

Experiments:
RMG2 = assay: MTT assay RMG2; assay type: cell-based; settings: Homo sapiens; RMG2, Clear cell
Method: (§1) Majority of ovarian cancers arise from the surface epithelium of ovary, most of them belong to the histological subtypes of clear cell and serous carcinoma. We obtained 10 more human ovarian carcinoma cell-lines of these histological subtypes for these studies. The inhibition activity exerted by Xanifolia-Y was determined with MTT assay.

skin cancer cells = assay: MTT assay, growth of skin cancer cells; assay type: cell-based; settings: Homo sapiens
Method: (§2) Cells. Human cancer cell lines were obtained from American Type Culture Collection: HTB-9 (bladder), HeLa-S3 (cervix), DU145 (prostate), H460 (lung), MCF-7 (breast), K562 (leukocytes), HCT116 (colon), HepG2 (liver), U2OS (bone), T98G (brain), SK-MEL-5 (Skin) and OVCAR-3 (ovary). The cells were grown in following culture media: HeLa-53, DU145, MCF-7, Hep-G2 and T98G are in MEN (Earle's salts); HTB-9, H460, K562 and OVCAR-3 in RPMI-1640; HCT-116 and U2OS in McCoy-5A. They are supplemented with 10% fetal calf serum, glutamine and antibiotics, and incubated in an incubator with 5% CO2 humidified at 37° C.
(§3) MTT Assay. The procedure for MTT assay followed the method described by Carmichael et al. (1987) with modifications. […] The formazan (product of the reduction of tetrazolium by viable cells) formed and was dissolved with DMSO and the O.D. at 490 nm, and was measured by an ELISA reader. The MTT level of the cells before drug-treatment was also measured (T0). The % cell-growth (% G) is calculated as: % G=(TD−T0/TC−T0)×100(1), where TC or TD represents O.D. readings of control or drug-treated cells. When T0>TD, then the cytotoxicity (LC) expressed as % of the control is calculated as: % LC=(TD−T0/T0)×100(2).

ovarian cancer cells = assay: MTT assay, growth of ovarian cancer cells (FIG. 3A, 3B); assay type: cell-based; settings: Homo sapiens, read-out: IC50, inhibiting growth of ovarian cancer cells
Method: as §2, §3

SKOV 3 = assay: MTT assay SKOV 3; assay type: cell-based; settings: Homo sapiens, SK-OV-3; SKOV 3, Serous
Method: as §1

[1] = tested on: blood vessels in ES2 (human ovarian cancer) xenograft tumor; assay: Genesis of blood vessel in xenograft tumor; assay type: in vivo, Athymic Nu/Nu mice; settings: i.p. 2.5 mg/kg on days 10-15 and 18-22, H&E sections
Method: Method: Athymic Nu/Nu mice (5-6 weeks old) are divided into two groups (1 and 2) with 5 animals in each group. On day 0, all mice were transplanted intra-peritoneally with one million ES2 (human ovarian cancer) cells. Animals were randomly divided into two groups:
Group 2: Drug-treatment group. On days 10-15 and 18-22, animals received daily drug administration of Xanifolia-Y, by i.p. route at dosage of 2.5 mg/kg.
Animals with high tumor burden were euthanized and solid tumors were taken out from these mice (between 18-27 days). Tumor tissues fixed with formalin at room temperature. The fixed tissues were sectioned and stained with Haematoxylin and eosin (H&E). The red blood cells inside the micro blood vessels were identified under a microscope.

(lung)H460 cells = assay: MTT assay H460; assay type: cell-based; settings: Homo sapiens, NCI-H460
Method: as §2, §3

Caov 3 = assay: MTT assay Caov 3; assay type: cell-based; settings: Homo sapiens; Caov 3, Serous
Method: as §1

TOV-21G = assay: MTT assay TOV-21G; assay type: cell-based; settings: Homo sapiens, TOV21G, Clear cell
Method: as §1

OVCA 432 = assay: MTT assay OVCA 432; assay type: cell-based; settings: Homo sapiens, OVCA432; OVCA 432, Serous
Method: as §1

[2] = tested on: swelling of rats' feet induced by Carrageenin; assay: Carrageenin-induced swollen feet model; assay type: in vivo, SD rats;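 also: percent increase in foot volume over pre-inflammation volume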
Method: SD rats, male, weighing 163±18 g were used in the experiment. The tested animals are allowed to acclimate for a week. The rats drink water freely. The rats were randomly divided into 5 groups: control, positive control and 3 test groups, and each group had 8 rats. The dose for 3 groups of rats are 10, 20 and 40 mg/kg. Indometacin for the positive control is 10 mg/kg and fed once after modeling. The dose of CMC-Na for the control group is the same as each test group and fed into the stomach once a day before modeling for 5 days. The tested drug was fed into the stomach 10 minutes before the animal modeling (1 mL/100 g). The volumes of right foot of each rat were measured 0.5, 1, 2 and 4 hours before and after modeling. The volumes of the right hind feet were measured at a different time, 10 minutes after inflammation induced by subcutaneous injection (with syringe needle 7) of 0.05 mL of the 1% of Carrageenin/normal saline mixture into the feet. The Rate of swelling of the feet was calculated, compared with the controls and subject to a student t-test. Rate of swelling (E) (%)=Ltn−Lt0/Lt0×100% • Ltn: volume of foot after the inflammation • Lt0: volume of foot before the inflammation

Molecule `C/C=C(/C)C(=O)O[C@H]1[C@H](OC(=O)/C(C)=C\C)[C@@]2(CO)C(CC1(C)C)C1=CCC3[C@@]4(C)CC[C@H](O[C@@H]5OC(C(=O)O)[C@@H](O)C(O[C@@H]6O[C@@H](CO)C(O)C6O)C5O[C@@H]5OC(CO)[C@H](O)C(O)C5O)C(C)(C)C4CC[C@@]3(C)[C@]1(C)[C@@H](O)[C@H]2O` (stereo partly drawn) [Xanifolia-Y, 3-O-[β-D-galactopyranosyl (1→2)]-α-L-arabinofuranosy (1→3)-β-D-glucuronopyranosyl-21,22-O-diangeloyl-3β, 15α, 16α, 21β, 22α, 28-hexahydroxyolean-12-ene] has an IC50 (RMG2) of 8.8 µM, an IC50 (skin cancer cells; FIG. 3C, purified compound, read-out: IC50, inhibition of growth of skin cancer cells) of 0.23 µg/mL (≈ 0.202 µM) and an IC50 (skin cancer cells; read-out: IC50 on skin cells) of 12 µg/mL (≈ 10.5 µM). For the same molecule, the IC50 (ovarian cancer cells) was roughly 1.5 µg/mL (≈ 1.31 µM), the IC50 (SKOV 3) was 10.5 µM and the “blood vessels in tumor sections” value [1] was “more blood vessels were observed in the control Group1 than those in the drug-treated Group 2”. The “blood vessels in tumor sections” value ([1]; listed as Xanifolia Y) was “More blood vessels were observed in the control Group 1 than those in the drug-treated Group 2”, the IC50 ((lung)H460 cells) was 7.5 µg/mL (≈ 6.57 µM) and the IC50 (Caov 3) was 7 µM. The IC50 (TOV-21G) was 2200 nM, the IC50 (OVCA 432) was 4.4 µM and the “Swelling rate after administration (%)” value ([2]; 10 mg/kg, 0.5 hour) was 16.7%. For the same molecule, the “Swelling rate after administration (%)” value ([2]; 10 mg/kg, 1 hour) was 18.5%, the “Swelling rate after administration (%)” value ([2]; 10 mg/kg, 2 hours) was 16.0% and the “Swelling rate after administration (%)” value ([2]; 10 mg/kg, 4 hours) was 10.5%. For the same molecule, the “Swelling rate after administration (%)” value ([2]; 20 mg/kg, 0.5 hour) was 10.5%, the “Swelling rate after administration (%)” value ([2]; 20 mg/kg, 1 hour) was 13.6% and the “Swelling rate after administration (%)” value ([2]; 20 mg/kg, 2 hours) was 12.4%. The “Swelling rate after administration (%)” value ([2]; 20 mg/kg, 4 hours) was 8.5%, the “Swelling rate after administration (%)” value ([2]; 40 mg/kg, 0.5 hour) was 10.3% and the “Swelling rate after administration (%)” value ([2]; 40 mg/kg, 1 hour) was 12.6%. The “Swelling rate after administration (%)” value ([2]; 40 mg/kg, 2 hours) was 12.5% and the “Swelling rate after administration (%)” value ([2]; 40 mg/kg, 4 hours) was 6.5%.
